Measurements as given in patent publication US20200024278A1, “COMPOSITION COMPRISING ANTIBIOTIC COMPOUND AND AN HETEROCYCLIC COMPOUND AND THEIR USE IN PREVENTING OR TREATING BACTERIAL INFECTIONS” (MUTABILIS, priority 2016, published 2020).

Columns and labels:
Assay in all cases: MIC, broth microdilution (CLSI), substance alone or ATB combined with compound at 4 or 8 μg/mL
[1] = system: SAU 29213; format: cell-based, S. aureus; settings: for MIC ATB combined with Example / MIC ATB combined with Example compound: SAU 29213; for MIC ATB combined with Example: Example @8 μg/ml; for MIC ATB combined with Example compound: compound @8 μg/ml
How it was run: (§1)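 CLSI M7-A7 broth microdilution. ca-MHB, 5·10^5 CFU/mL log-phase cells, 16-20 h, 35° C, ambient air. Fosfomycin wells + 25 μg/ml glucose-6-phosphate. Visual MIC read.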

[2] = system: ECL P99; format: cell-based, E. cloacae; settings: ECL P99; for MIC ATB combined with Example: Example @8 μg/ml
How it was run: as §1

[3] = system: KPN 6299; format: cell-based, K. pneumoniae; settings: for MIC ATB combined with Example: Example @8 μg/ml
How it was run: as §1

[4] = system: KPN BAA-1898; format: cell-based, K. pneumoniae; settings: KPN BAA-1898; for MIC ATB combined with Example: Example @8 μg/ml
How it was run: as §1

[5] = system: KPN UFR42; format: cell-based, K. pneumoniae; settings: KPN UFR42; for MIC ATB combined with Example: Example @8 μg/ml; for MIC ATB combined with Example compound: compound @8 μg/ml
How it was run: as §1

[6] = system: SPN 49619; format: cell-based, S. pneumoniae; settings: SPN 49619; for MIC ATB combined with Example: Example @8 μg/ml; for MIC ATB combined with Example compound: compound @8 μg/ml
How it was run: as §1

[7] = system: PAE UFR48; format: cell-based, P. aeruginosa; settings: PAE UFR48; for MIC ATB combined with Example: Example @8 μg/ml; for MIC ATB combined with Example compound: compound @8 μg/ml
How it was run: as §1

[8] = system: PAE UFR90; format: cell-based, P. aeruginosa; settings: PAE UFR90; for MIC ATB combined with Example: Example @8 μg/ml; for MIC ATB combined with Example compound: compound @8 μg/ml
How it was run: as §1

[9] = system: PAE 105250; format: cell-based, P. aeruginosa; settings: PAE 105250; for MIC ATB combined with Example: Example @8 μg/ml; for MIC ATB combined with Example compound: compound @8 μg/ml
How it was run: as §1

[10] = system: ECO UFR39; format: cell-based, E. coli; settings: ECO UFR39; for MIC ATB combined with Example: Example @8 μg/ml; for MIC ATB combined with Example compound: compound @8 μg/ml
How it was run: as §1

[11] = system: ECO 190317; format: cell-based, E. coli; settings: ECO 190317; for MIC ATB combined with Example: Example @8 μg/ml
How it was run: as §1

[12] = system: ABA UFR159; format: cell-based, A. baumannii; settings: substance alone
How it was run: as §1

[13] = system: ABA 19606; format: cell-based, A. baumannii; settings: substance alone
How it was run: as §1

O=C1N2CC(n3ccnn3)=CC(C2)N1OS(=O)(=O)[O-].[Na+] (stereo not drawn) [Example 12, sodium [7-oxo-3-(triazol-1-yl)-1,6-diazabicyclo[3.2.1]oct-3-en-6-yl] sulfate]
MIC ATB combined with Example ([1]; ATB ATM): <0.031 µg/mL | MIC ATB combined with Example ([1]; ATB FEP): <0.031 µg/mL | MIC ATB combined with Example ([1]; ATB FOS): <0.125 µg/mL | MIC ATB combined with Example ([1]; ATB MEM): <0.031 µg/mL | MIC ATB combined with Example ([1]; ATB PIP): <0.031 µg/mL | MIC ATB combined with Example compound ([1]; MIC of CIP): <0.031 µg/mL | MIC ATB combined with Example compound ([1]; MIC of CLI): <0.0010 µg/mL | MIC ATB combined with Example compound ([1]; MIC of CPO): <0.031 µg/mL | MIC ATB combined with Example compound ([1]; MIC of DAP): <0.0020 µg/mL | MIC ATB combined with Example compound ([1]; MIC of ERY): <0.0020 µg/mL | MIC ATB combined with Example compound ([1]; MIC of LZD): <0.0078 µg/mL | MIC ATB combined with Example compound ([1]; MIC of RIF): <0.00012 µg/mL | MIC ATB combined with Example compound ([1]; MIC of SYN): <0.0020 µg/mL | MIC ATB combined with Example compound ([1]; MIC of VAN): <0.0039 µg/mL | MIC ([1]; substance alone, SAU 29213 (MSSA 29213)): 8 µg/mL | MIC ATB combined with Example ([2]; ATB ATM): <0.031 µg/mL | MIC ATB combined with Example ([2]; ATB FEP): <0.031 µg/mL | MIC ATB combined with Example ([2]; ATB FOS): <0.125 µg/mL | MIC ATB combined with Example ([2]; ATB MEM): <0.031 µg/mL | MIC ATB combined with Example ([2]; ATB PIP): <0.031 µg/mL | MIC ATB combined with Example compound ([2]; MIC of CIP, compound @8 μg/ml): <0.031 µg/mL | MIC ([2]; substance alone): 1 µg/mL | MIC ATB combined with Example ([3]; ATB ATM): <0.031 µg/mL | MIC ATB combined with Example ([3]; ATB FEP): <0.031 µg/mL | MIC ATB combined with Example ([3]; ATB FOS): <0.125 µg/mL | MIC ATB combined with Example ([3]; ATB MEM): <0.031 µg/mL | MIC ATB combined with Example ([3]; ATB PIP): <0.031 µg/mL | MIC ATB combined with Example compound ([3]; MIC of CIP, compound @8 μg/ml): <0.031 µg/mL | MIC ATB combined with Example ([4]; ATB ATM): <0.031 µg/mL | MIC ATB combined with Example ([4]; ATB FEP): <0.031 µg/mL | MIC ATB combined with Example ([4]; ATB FOS): <0.125 µg/mL | MIC ATB combined with Example ([4]; ATB MEM): <0.031 µg/mL | MIC ATB combined with Example ([4]; ATB PIP): <0.031 µg/mL | MIC ATB combined with Example compound ([4]; MIC of CIP, compound @8 μg/ml): <0.031 µg/mL | MIC ([4]; substance alone): 2 µg/mL | MIC ATB combined with Example ([5]; ATB ATM): <0.031 µg/mL | MIC ATB combined with Example ([5]; ATB FEP): <0.031 µg/mL | MIC ATB combined with Example ([5]; ATB FOS): <0.125 µg/mL | MIC ATB combined with Example ([5]; ATB MEM): <0.031 µg/mL | MIC ATB combined with Example ([5]; ATB PIP): <0.031 µg/mL | MIC ATB combined with Example compound ([5]; MIC of CIP): <0.031 µg/mL | MIC ATB combined with Example compound ([5]; MIC of CPO): <0.031 µg/mL | MIC ([5]; substance alone): 4 µg/mL | MIC ATB combined with Example ([6]; ATB ATM): >32 µg/mL | MIC ATB combined with Example ([6]; ATB FEP): <=0.031 μg/mL | MIC ATB combined with Example ([6]; ATB FOS): 8 µg/mL | MIC ATB combined with Example ([6]; ATB MEM): <=0.031 μg/mL | MIC ATB combined with Example ([6]; ATB PIP): 0.25 µg/mL | MIC ATB combined with Example compound ([6]; MIC of CIP): 0.063 µg/mL | MIC ATB combined with Example compound ([6]; MIC of CLI): <0.0010 µg/mL | MIC ATB combined with Example compound ([6]; MIC of CPO): <=0.031 μg/mL | MIC ATB combined with Example compound ([6]; MIC of DAP): 0.031 µg/mL | MIC ATB combined with Example compound ([6]; MIC of ERY): <0.0020 µg/mL | MIC ATB combined with Example compound ([6]; MIC of LZD): 0.25 µg/mL | MIC ATB combined with Example compound ([6]; MIC of RIF): 0.00049 µg/mL | MIC ATB combined with Example compound ([6]; MIC of SYN): 0.125 µg/mL | MIC ATB combined with Example compound ([6]; MIC of VAN): 0.016 µg/mL | MIC ([6]; substance alone): 8 µg/mL | MIC ATB combined with Example ([7]; ATB ATM): 8 µg/mL | MIC ATB combined with Example ([7]; ATB FEP): 16 µg/mL | MIC ATB combined with Example ([7]; ATB FOS): 16 µg/mL | MIC ATB combined with Example ([7]; ATB MEM): 0.5 µg/mL | MIC ATB combined with Example ([7]; ATB PIP): 16 µg/mL | MIC ATB combined with Example compound ([7]; MIC of CIP): 4 µg/mL | MIC ATB combined with Example compound ([7]; MIC of CPO): >32 µg/mL | MIC ([7]; substance alone): >32 µg/mL | MIC ATB combined with Example ([8]; ATB ATM): 16 µg/mL | MIC ATB combined with Example ([8]; ATB FEP): 4 µg/mL | MIC ATB combined with Example ([8]; ATB FOS): 8 µg/mL | MIC ATB combined with Example ([8]; ATB MEM): 1 µg/mL | MIC ATB combined with Example ([8]; ATB PIP): >32 µg/mL | MIC ATB combined with Example compound ([8]; MIC of CIP): 1 µg/mL | MIC ATB combined with Example compound ([8]; MIC of CPO): 8 µg/mL | MIC ([8]; substance alone): >32 µg/mL | MIC ATB combined with Example ([9]; ATB ATM): 8 µg/mL | MIC ATB combined with Example ([9]; ATB FEP): 2 µg/mL | MIC ATB combined with Example ([9]; ATB FOS): >128 µg/mL | MIC ATB combined with Example ([9]; ATB MEM): 1 µg/mL | MIC ATB combined with Example ([9]; ATB PIP): 32 µg/mL | MIC ATB combined with Example compound ([9]; MIC of CIP): 0.125 µg/mL | MIC ATB combined with Example compound ([9]; MIC of CPO): 8 µg/mL | MIC ([9]; substance alone): >32 µg/mL | MIC ATB combined with Example ([10]; ATB ATM): <0.031 µg/mL | MIC ATB combined with Example ([10]; ATB FEP): <0.031 µg/mL | MIC ATB combined with Example ([10]; ATB FOS): <0.125 µg/mL | MIC ATB combined with Example ([10]; ATB MEM): <0.031 µg/mL | MIC ATB combined with Example ([10]; ATB PIP): <0.031 µg/mL | MIC ATB combined with Example compound ([10]; MIC of CIP): <0.031 µg/mL | MIC ATB combined with Example compound ([10]; MIC of CPO): <0.031 µg/mL | MIC ([10]; substance alone): 1 µg/mL | MIC ATB combined with Example ([11]; ATB ATM): <0.031 µg/mL | MIC ATB combined with Example ([11]; ATB FEP): <0.031 µg/mL | MIC ATB combined with Example ([11]; ATB FOS): <0.125 µg/mL | MIC ATB combined with Example ([11]; ATB MEM): <0.031 µg/mL | MIC ATB combined with Example ([11]; ATB PIP): <0.031 µg/mL | MIC ATB combined with Example compound ([11]; MIC of CIP, compound @8 μg/ml): <0.031 µg/mL | MIC ([11]; substance alone): 1 µg/mL | MIC [12]: >32 µg/mL | MIC [13]: 32 µg/mL
